Measured values: publication PMC7326067, “The Critical Role of Tryptophan in the Antimicrobial Activity and Cell Toxicity of the Duck Antimicrobial Peptide DCATH” (Frontiers in Microbiology, 2020)
Where no end group is shown, it is not given here.

Assays:
E. coli ATCC 25922 = format: cell-based, Escherichia coli; settings: ATCC 25922, 24 h
Protocol: (§1) Three types of Gram-positive bacteria (Staphylococcus epidermidis ATCC 12228, Staphylococcus aureus 29213 and Enterococcus faecalis ATCC 29212) and four types of Gram-negative bacteria (Escherichia coli UB1005, Escherichia coli ATCC 25922, Salmonella typhimurium ATCC 14028 and Salmonella pullorum C79–13) preserved in our lab were cultured in the medium of Muller-Hinton broth (MHB) medium (1.75% casamino acid, 0.2% beef extract, 0.15% soluble starch, pH 7.0). The murine macrophage cell line RAW 264.7 cells were procured from the American Type Culture Collection (Manassas, VA, United States) and cultured in DMEM containing 10% fetal bovine serum […], penicillin (100 units/ml) and streptomycin (100 units/ml) in 5% CO2 at 37°C.
(§2) The antimicrobial activity of peptides was examined against representative strains of Gram-positive bacteria (S. aureus ATCC 29213, S. epidermidis ATCC 12228 and E. faecalis ATCC 29212) and Gram-negative bacteria (E. coli ATCC 25922, E. coli UB1005, S. pullorum C79–13, and S. typhimurium ATCC 14028) which were cultured in MHB medium. Antimicrobial activity assay was performed according to a modified version of broth microdilution method ([Gao et al., 2015]). When grown to an OD600 of 0.4, the bacterial stains cultured in MHB were diluted to a final concentration of about 1 × 10^5 CFU/ml. Fifty microliter of microbial solution and 50 μl of two-fold diluted concentrations of peptides [0.2% (w/v) bovine serum albumin, 0.01% (v/v) acetic acid] were mixed in the sterile 96-well plate and cultured at 37°C for 24 h. MICs were identified as the lowest peptide concentration that no bacteria growth was observed by OD determination (492 nm). Each experiment was performed in triplicate. The geometric mean (GM) of the MICs of a peptide was calculated on the MIC values of the peptide against all tested bacteria, and was used to evaluate the antimicrobial activity of the peptide. The therapeutic index (TI) was defined as the ratio of the minimum hemolytic concentration (MHC) to the GM and was used to measure the peptide cell selectivity toward the component with negative charge of bacterial cell membranes over the zwitterionic membranes mammalian cells. TI was calculated as the ratio of the HC10 (the peptide concentration needed to reach 10% lysis of hRBCs) value to the GM (TI = HC10/GM).

E. coli UB1005 = format: cell-based, Escherichia coli; settings: UB1005, 24 h
Protocol: as §1, §2

S. pullorum C79-13 = format: cell-based, Salmonella pullorum; settings: C79-13, 24 h
Protocol: as §1, §2

[1] = system: S. typhimurium ATCC 14028; format: cell-based, Salmonella typhimurium; settings: ATCC 14028, 24 h
Protocol: as §1, §2

S. aureus ATCC 29213 = format: cell-based, Staphylococcus aureus; settings: ATCC 29213, 24 h
Protocol: as §1, §2

[2] = system: S. epidermidis ATCC 12228; format: cell-based, Staphylococcus epidermidis; settings: ATCC 12228, 24 h
Protocol: as §1, §2

E. faecalis ATCC 29212 = format: cell-based, Enterococcus faecalis; settings: ATCC 29212, 24 h
Protocol: as §1, §2

all tested bacteria = experiment: MIC over all tested bacteria (geometric mean); format: cell-based; settings: calculated on the MIC values against all tested bacteria (7 strains)
Protocol: as §1, §2

[3] = system: Human red blood cells (hRBCs); format: cell-based; settings: for MHC (minimum hemolytic concentration): red cells of human, 1 h
Protocol: The hemolytic activity assay of these peptides was performed according to the method of [Gao et al. (2015)]. Human red blood cells (hRBCs) donated by a healthy adult were collected by centrifugation and washed by phosphate-buffered saline (PBS) solution (pH 7.2). 1% (v/v) suspension of hRBCs in PBS was incubated with different concentrations of peptides dissolved in PBS for 1 h at 37°C. Absorbance in the supernatant was monitored at 405 nm. hRBCs in 0.1% Triton X-100 and PBS were used as positive and negative controls, respectively. The hemolysis percentage was calculated as follows:
%hemolysis=[A-sampleA]blank/[A-TritonA]blank×100.
FIGURE 1 Hemolytic and toxicity activity of the peptides. (A,B) Hemolytic activity against hRBCs. (C,D) Toxicity activity against RAW264.7 cells. Hemolytic activity was evaluated by incubating individual peptides in serial 2-fold dilutions with freshly isolated hRBCs at 37°C for 1 h, followed by measuring the released hemoglobin at 405 nm. For negative and positive controls, hRBCs in PBS and 0.1% Triton X-100 were used, respectively. Toxicity activity of the peptides against RAW264.7 was determined using MTT method. The peptides were incubated with RAW264.7 in a 96-well microtiter plate. After incubation with MTT, the supernatant was discarded and DMSO was added and the optical density (OD) at 570 nm was measured.

[4] = system: BALB/c mice challenged with lethal dose of LPS; experiment: Protection of mice from LPS-induced lethal infection; format: in vivo; settings: male BALB/c mice, LPS 20 mg/kg i.p.; PMB 2.5 mg/kg or peptide 10 mg/kg i.p. 1 h after challenge
Protocol: The 6–8 week-old male BALB/c mice (purchased from Charles River Laboratories, Beijing, China) were used to investigate the protective effect in vivo of peptides on LPS-induced infection. All animals were raised under specific pathogen-free conditions and the protocol was authorized by the Animal Care Committee of Northeast Agricultural University. Mice were divided into four groups (12 mice per group). 1 h after a challenge with a lethal dose of LPS intraperitoneal injection (20 mg/kg⋅body weight), 4 groups of mice were injected intraperitoneally with 0.5 ml PBS, PMB (2.5 mg/kg⋅body weight), dCATH(1–16) or dCATH(5–20) (10 mg/kg⋅body weight). General behavior, onset and course of clinical disease and mortality of mice were observed every 12 h for a period of 7 days.
FIGURE 8 Survival of mice from LPS-induced lethal infection by dCATH(1–16) or dCATH(5–20). Mice were subjected to a lethal dose of LPS, followed by i.p. injection of CATH(1–16) or dCATH(5–20) at 10 mg/kg or an equal volume of PBS as controls (n = 12). Survival was recorded every 12 h over 7 days.

## KRFWQLVPLAIKIYRAWKRR-NH2 [dCATH]
E. coli ATCC 25922
  MIC E. coli ATCC 25922: 2 µM
E. coli UB1005
  MIC E. coli UB1005: 2 µM
S. pullorum C79-13
  MIC S. pullorum C79-13: 4 µM
[1]
  MIC S. typhimurium ATCC 14028: 8 µM
S. aureus ATCC 29213
  MIC S. aureus ATCC 29213: 4 µM
[2]
  MIC S. epidermidis ATCC 12228: 4 µM
E. faecalis ATCC 29212
  MIC E. faecalis ATCC 29212: 4 µM
All tested bacteria
  GM (geometric mean of the MICs): 3.62 µM
[3]
  hemolytic activity (in words): obvious hemolytic activity
  MHC (minimum hemolytic concentration): 4 µM

## KRFAQLVPLAIKIYRAAKRR-NH2 [dCATH-AA]
E. coli ATCC 25922
  MIC E. coli ATCC 25922: 32 µM
E. coli UB1005
  MIC E. coli UB1005: 16 µM
S. pullorum C79-13
  MIC S. pullorum C79-13: 32 µM
[1]
  MIC S. typhimurium ATCC 14028: 64 µM
S. aureus ATCC 29213
  MIC S. aureus ATCC 29213: 64 µM
[2]
  MIC S. epidermidis ATCC 12228: 64 µM
E. faecalis ATCC 29212
  MIC E. faecalis ATCC 29212: 32 µM
All tested bacteria
  GM (geometric mean of the MICs): 39.01 µM
[3]
  hemolytic activity (in words): negligible hemolytic activity

## KRFWQLVPLAIKIYRAWK-NH2 [dCATH(1–18)]
E. coli ATCC 25922
  MIC E. coli ATCC 25922: 1 µM
E. coli UB1005
  MIC E. coli UB1005: 2 µM
S. pullorum C79-13
  MIC S. pullorum C79-13: 2 µM
[1]
  MIC S. typhimurium ATCC 14028: 2 µM
S. aureus ATCC 29213
  MIC S. aureus ATCC 29213: 2 µM
[2]
  MIC S. epidermidis ATCC 12228: 2 µM
E. faecalis ATCC 29212
  MIC E. faecalis ATCC 29212: 2 µM
All tested bacteria
  GM (geometric mean of the MICs): 1.81 µM
[3]
  hemolytic activity (in words): obvious hemolytic activity
  MHC (minimum hemolytic concentration): 8 µM

## FWQLVPLAIKIYRAWKRR-NH2 [dCATH(3–20)]
E. coli ATCC 25922
  MIC E. coli ATCC 25922: 1 µM
E. coli UB1005
  MIC E. coli UB1005: 2 µM
S. pullorum C79-13
  MIC S. pullorum C79-13: 2 µM
[1]
  MIC S. typhimurium ATCC 14028: 4 µM
S. aureus ATCC 29213
  MIC S. aureus ATCC 29213: 2 µM
[2]
  MIC S. epidermidis ATCC 12228: 1 µM
E. faecalis ATCC 29212
  MIC E. faecalis ATCC 29212: 2 µM
All tested bacteria
  GM (geometric mean of the MICs): 1.81 µM
[3]
  hemolytic activity (in words): obvious hemolytic activity
  MHC (minimum hemolytic concentration): 4 µM

## QLVPLAIKIYRA-NH2 [dCATH(5–16)]
E. coli ATCC 25922
  MIC E. coli ATCC 25922: 64 µM
E. coli UB1005
  MIC E. coli UB1005: 128 µM
All tested bacteria
  GM (geometric mean of the MICs): 190.21 µM
[3]
  hemolytic activity (in words): negligible hemolytic activity

## WQLVPLAIKIYRAWKRR-NH2 [dCATH(4–20)]
E. coli ATCC 25922
  MIC E. coli ATCC 25922: 1 µM
E. coli UB1005
  MIC E. coli UB1005: 4 µM
S. pullorum C79-13
  MIC S. pullorum C79-13: 4 µM
[1]
  MIC S. typhimurium ATCC 14028: 2 µM
S. aureus ATCC 29213
  MIC S. aureus ATCC 29213: 2 µM
[2]
  MIC S. epidermidis ATCC 12228: 4 µM
E. faecalis ATCC 29212
  MIC E. faecalis ATCC 29212: 2 µM
All tested bacteria
  GM (geometric mean of the MICs): 2.44 µM
[3]
  hemolytic activity (in words): obvious hemolytic activity
  MHC (minimum hemolytic concentration): 16 µM

## polymyxin B [PMB]
[4]
  onset and symptoms of disease (in words): delayed the onset of disease of mice with less severe symptoms

## QLVPLAIKIYRAAKRR-NH2 [dCATH(5–20)-17A]
E. coli ATCC 25922
  MIC E. coli ATCC 25922: 64 µM
[1]
  MIC S. typhimurium ATCC 14028: 64 µM
S. aureus ATCC 29213
  MIC S. aureus ATCC 29213: 32 µM
[2]
  MIC S. epidermidis ATCC 12228: 32 µM
E. faecalis ATCC 29212
  MIC E. faecalis ATCC 29212: 32 µM
All tested bacteria
  GM (geometric mean of the MICs): 70.66 µM
[3]
  hemolytic activity (in words): negligible hemolytic activity

## KRFWQLVPLAIKIYRAW-NH2 [dCATH(1–17)]
E. coli ATCC 25922
  MIC E. coli ATCC 25922: 1 µM
E. coli UB1005
  MIC E. coli UB1005: 1 µM
S. pullorum C79-13
  MIC S. pullorum C79-13: 4 µM
[1]
  MIC S. typhimurium ATCC 14028: 4 µM
S. aureus ATCC 29213
  MIC S. aureus ATCC 29213: 2 µM
[2]
  MIC S. epidermidis ATCC 12228: 4 µM
E. faecalis ATCC 29212
  MIC E. faecalis ATCC 29212: 2 µM
All tested bacteria
  GM (geometric mean of the MICs): 2.21 µM
[3]
  hemolytic activity (in words): obvious hemolytic activity
  MHC (minimum hemolytic concentration): 8 µM

## KRFWQLVPLAIKIYRA-NH2 [dCATH(1–16)]
E. coli ATCC 25922
  MIC E. coli ATCC 25922: 2 µM
E. coli UB1005
  MIC E. coli UB1005: 4 µM
S. pullorum C79-13
  MIC S. pullorum C79-13: 4 µM
[1]
  MIC S. typhimurium ATCC 14028: 4 µM
S. aureus ATCC 29213
  MIC S. aureus ATCC 29213: 8 µM
[2]
  MIC S. epidermidis ATCC 12228: 8 µM
E. faecalis ATCC 29212
  MIC E. faecalis ATCC 29212: 8 µM
All tested bacteria
  GM (geometric mean of the MICs): 4.88 µM

## QLVPLAIKIYRAWKRR-NH2 [dCATH(5–20)]
E. coli ATCC 25922
  MIC E. coli ATCC 25922: 1 µM
E. coli UB1005
  MIC E. coli UB1005: 4 µM
S. pullorum C79-13
  MIC S. pullorum C79-13: 8 µM
[1]
  MIC S. typhimurium ATCC 14028: 4 µM
S. aureus ATCC 29213
  MIC S. aureus ATCC 29213: 2 µM
[2]
  MIC S. epidermidis ATCC 12228: 4 µM
E. faecalis ATCC 29212
  MIC E. faecalis ATCC 29212: 4 µM
All tested bacteria
  GM (geometric mean of the MICs): 3.28 µM
[3]
  MHC (minimum hemolytic concentration): 128 µM

## KRFAQLVPLAIKIYRA-NH2 [dCATH(1–16)-4A]
E. coli ATCC 25922
  MIC E. coli ATCC 25922: 16 µM
E. coli UB1005
  MIC E. coli UB1005: 32 µM
S. pullorum C79-13
  MIC S. pullorum C79-13: 64 µM
[1]
  MIC S. typhimurium ATCC 14028: 64 µM
S. aureus ATCC 29213
  MIC S. aureus ATCC 29213: 128 µM
[2]
  MIC S. epidermidis ATCC 12228: 64 µM
E. faecalis ATCC 29212
  MIC E. faecalis ATCC 29212: 32 µM
All tested bacteria
  GM (geometric mean of the MICs): 47.55 µM
[3]
  hemolytic activity (in words): negligible hemolytic activity
